Drawing on the supplement of paper PMC10307832, this text covers relative viability for eleven cell lines.

Common to all, as to assay: relative viability (nuclei count vs DMSO), 5 days (fraction); higher = more cells survive
Compound in the assay “R406 + Foretinib”: COc1cc(Nc2ncc(F)c(Nc3ccc4c(n3)NC(=O)C(C)(C)O4)n2)cc(OC)c1OC [R406] + COc1cc2c(Oc3ccc(NC(=O)C4(C(=O)Nc5ccc(F)cc5)CC4)cc3F)ccnc2cc1OCCCN1CCOCC1 [Foretinib] (partner 0.25 µM)
Summed up:
(§1)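 Cells from lung cancer lines were seeded into 1536-well plates and, one day later, dosed by pin tool. Treatments were either a single drug or a fixed dose of an anchor drug with five library-drug doses (not always all listed) in √10 steps. After 5 days, nuclei were stained in a one-step fixation (final 0.05% Triton X-100, 1% formaldehyde, 1 ug/ml Hoechst) and counted on 4× images, and relative viability is the treated-to-vehicle nuclei ratio, as the median of duplicate plates.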

Compound in the assay “R406 + Lapatinib”: COc1cc(Nc2ncc(F)c(Nc3ccc4c(n3)NC(=O)C(C)(C)O4)n2)cc(OC)c1OC [R406] + CS(=O)(=O)CCNCc1ccc(-c2ccc3ncnc(Nc4ccc(OCc5cccc(F)c5)c(Cl)c4)c3c2)o1 [Lapatinib] (partner 2 µM)
In short, it runs like this: as §1

Compound in the assay “Daporinad + OSI-027”: O=C(/C=C/c1cccnc1)NCCCCC1CCN(C(=O)c2ccccc2)CC1 [Daporinad] + COc1cccc2cc(-c3nc([C@H]4CC[C@H](C(=O)O)CC4)n4ncnc(N)c34)[nH]c12 [OSI-027] (partner 0.5 µM)
In short, it runs like this: as §1

Compound in the assay “Daporinad + AZD7762”: O=C(/C=C/c1cccnc1)NCCCCC1CCN(C(=O)c2ccccc2)CC1 [Daporinad] + NC(=O)Nc1cc(-c2cccc(F)c2)sc1C(=O)N[C@H]1CCCNC1 [AZD7762] (partner 0.2 µM)
In short, it runs like this:
as §1

Regarding NCI-H1563, the relative viability with R406 + Foretinib (first compound 0.08 µM) amounted to 0.777; with R406 + Foretinib (first compound 0.253 µM) it was 1; in the assay with R406 + Foretinib (first compound 0.8 µM), 0.939; with R406 + Foretinib (first compound 2.53 µM) it was 0.82; with R406 + Foretinib (first compound 8 µM), 0.624; in the assay with R406 + Lapatinib (first compound 0.08 µM) it was 0.886. The relative viability in the assay with R406 + Lapatinib (first compound 0.253 µM) came out at 1.06; in the assay with R406 + Lapatinib (first compound 0.8 µM), 1.06; with R406 + Lapatinib (first compound 2.53 µM) it was 0.506; with R406 + Lapatinib (first compound 8 µM), 0.574; with Daporinad + OSI-027 (first compound 0.0005 µM), 0.754; with Daporinad + OSI-027 (first compound 0.001581 µM), 0.749. Besides, the relative viability was 0.807 with Daporinad + OSI-027 (first compound 0.005 µM) and 0.719 in the assay with Daporinad + OSI-027 (first compound 0.01581 µM).

As for NCI-H1623, the relative viability with R406 + Foretinib (first compound 0.08 µM) was 0.931; with R406 + Foretinib (first compound 0.253 µM) it was 0.952; in the assay with R406 + Foretinib (first compound 0.8 µM), 0.962; with R406 + Foretinib (first compound 2.53 µM), 0.806; with R406 + Foretinib (first compound 8 µM), 0.849; with Daporinad + OSI-027 (first compound 0.0005 µM), 0.413. In addition, the figures for the relative viability with Daporinad + OSI-027 (first compound 0.001581 µM), with Daporinad + OSI-027 (first compound 0.005 µM) and with Daporinad + OSI-027 (first compound 0.01581 µM) were 0.439, 0.466 and 0.475, respectively.

With NCI-H1648, the relative viability in the assay with Daporinad + OSI-027 (first compound 0.0005 µM) stood at 0.231; in the assay with Daporinad + OSI-027 (first compound 0.001581 µM) it was 0.26; with Daporinad + OSI-027 (first compound 0.005 µM), 0.262; in the assay with Daporinad + OSI-027 (first compound 0.01581 µM) it was 0.244; in the assay with Daporinad + AZD7762 (first compound 0.0005 µM) it was 0.649; with Daporinad + AZD7762 (first compound 0.001581 µM), 0.577. Further, the relative viability in the assay with Daporinad + AZD7762 (first compound 0.005 µM) was determined as 0.674; with Daporinad + AZD7762 (first compound 0.01581 µM) it was 0.653.

Take NCI-H1650: the relative viability stood at 1.28 in the assay with R406 + Foretinib (first compound 0.08 µM); 1.23 with R406 + Foretinib (first compound 0.253 µM); 1 with R406 + Foretinib (first compound 0.8 µM); 0.723 with R406 + Foretinib (first compound 2.53 µM); 0.117 with R406 + Foretinib (first compound 8 µM); 0.724 with R406 + Lapatinib (first compound 0.08 µM). For the same cell line, the relative viability in the assay with R406 + Lapatinib (first compound 0.253 µM) came out at 0.926; in the assay with R406 + Lapatinib (first compound 0.8 µM), 0.802; with R406 + Lapatinib (first compound 2.53 µM) it was 0.154; with R406 + Lapatinib (first compound 8 µM) it was 0.119; in the assay with Daporinad + OSI-027 (first compound 0.0005 µM), 0.637; in the assay with Daporinad + OSI-027 (first compound 0.001581 µM), 0.655. Further, the results for the relative viability with Daporinad + OSI-027 (first compound 0.005 µM) and with Daporinad + OSI-027 (first compound 0.01581 µM) were 0.733 and 0.825, respectively.

For NCI-H1703, the relative viability was found to be 0.346 with R406 + Foretinib (first compound 0.08 µM); 0.327 with R406 + Foretinib (first compound 0.253 µM); 0.323 in the assay with R406 + Foretinib (first compound 0.8 µM); 0.228 in the assay with R406 + Foretinib (first compound 2.53 µM); 0.218 with R406 + Foretinib (first compound 8 µM); 1.52 with R406 + Lapatinib (first compound 0.08 µM). Also, the relative viability in the assay with R406 + Lapatinib (first compound 0.8 µM) was determined as 1.03; in the assay with R406 + Lapatinib (first compound 2.53 µM), 0.218; with R406 + Lapatinib (first compound 8 µM), 0.17; with Daporinad + AZD7762 (first compound 0.0005 µM) it was 0.134; with Daporinad + AZD7762 (first compound 0.001581 µM), 0.123; in the assay with Daporinad + AZD7762 (first compound 0.005 µM) it was 0.155. The relative viability with Daporinad + AZD7762 (first compound 0.01581 µM) worked out at 0.142.

Turning to NCI-H2009, the relative viability with R406 + Foretinib (first compound 0.08 µM) was found to be 1.19; with R406 + Foretinib (first compound 0.253 µM), 1.35; with R406 + Foretinib (first compound 0.8 µM), 1.17; with R406 + Foretinib (first compound 2.53 µM), 1.27; with R406 + Foretinib (first compound 8 µM), 0.368; with R406 + Lapatinib (first compound 0.08 µM), 0.93. In addition, the relative viability is 1.19 with R406 + Lapatinib (first compound 0.253 µM); 1.22 with R406 + Lapatinib (first compound 0.8 µM); 0.0976 with R406 + Lapatinib (first compound 2.53 µM); 0.261 with R406 + Lapatinib (first compound 8 µM); 0.599 with Daporinad + OSI-027 (first compound 0.0005 µM); 0.739 in the assay with Daporinad + OSI-027 (first compound 0.001581 µM). The relative viability with Daporinad + OSI-027 (first compound 0.005 µM) was found to be 0.614; with Daporinad + OSI-027 (first compound 0.01581 µM) it was 0.381.

On to NCI-H2023, for which the relative viability with R406 + Foretinib (first compound 0.08 µM) was 0.905; with R406 + Foretinib (first compound 0.253 µM) it was 0.703; in the assay with R406 + Foretinib (first compound 0.8 µM), 0.768; with R406 + Foretinib (first compound 2.53 µM) it was 0.896; with R406 + Foretinib (first compound 8 µM), 0.368; with R406 + Lapatinib (first compound 0.08 µM) it was 0.968. In addition, the relative viability with R406 + Lapatinib (first compound 0.253 µM) is 0.976; with R406 + Lapatinib (first compound 0.8 µM), 1.05; with R406 + Lapatinib (first compound 2.53 µM), 0.0633; in the assay with R406 + Lapatinib (first compound 8 µM), 0.189; in the assay with Daporinad + OSI-027 (first compound 0.0005 µM), 0.35; with Daporinad + OSI-027 (first compound 0.001581 µM), 0.458. Also, the values for the relative viability in the assay with Daporinad + OSI-027 (first compound 0.005 µM) and with Daporinad + OSI-027 (first compound 0.01581 µM) were 0.395 and 0.455, respectively.

As to NCI-H2228, the relative viability in the assay with R406 + Foretinib (first compound 0.08 µM) is 0.798; with R406 + Foretinib (first compound 0.253 µM), 1.01; in the assay with R406 + Foretinib (first compound 0.8 µM) it was 0.972; in the assay with R406 + Foretinib (first compound 2.53 µM) it was 0.567; with R406 + Foretinib (first compound 8 µM) it was 0.337; with R406 + Lapatinib (first compound 0.08 µM), 1.13. In addition, the relative viability with R406 + Lapatinib (first compound 0.253 µM) turned out to be 1.27; with R406 + Lapatinib (first compound 0.8 µM) it was 1.5; with R406 + Lapatinib (first compound 2.53 µM) it was 0.13; in the assay with R406 + Lapatinib (first compound 8 µM) it was 0.131; in the assay with Daporinad + OSI-027 (first compound 0.0005 µM), 0.561; with Daporinad + OSI-027 (first compound 0.001581 µM), 0.552. The relative viability is 0.915 with Daporinad + OSI-027 (first compound 0.005 µM) and 0.731 with Daporinad + OSI-027 (first compound 0.01581 µM).

SK-LU-1: the relative viability with R406 + Foretinib (first compound 0.08 µM) is 0.708; with R406 + Foretinib (first compound 0.253 µM) it was 0.816; in the assay with R406 + Foretinib (first compound 0.8 µM), 0.992; in the assay with R406 + Foretinib (first compound 2.53 µM), 0.439; with R406 + Foretinib (first compound 8 µM) it was 0.12; with R406 + Lapatinib (first compound 0.08 µM), 0.875. Besides, the relative viability with R406 + Lapatinib (first compound 0.253 µM) stood at 0.93; with R406 + Lapatinib (first compound 0.8 µM), 1.09; with R406 + Lapatinib (first compound 2.53 µM), 0.491; with R406 + Lapatinib (first compound 8 µM), 0.303; in the assay with Daporinad + OSI-027 (first compound 0.0005 µM) it was 0.358; with Daporinad + OSI-027 (first compound 0.001581 µM), 0.335. Besides, the relative viability with Daporinad + OSI-027 (first compound 0.005 µM) was 0.454; with Daporinad + OSI-027 (first compound 0.01581 µM) it was 0.348.

For the cell line SK-MES-1, the relative viability was determined as 0.892 with R406 + Foretinib (first compound 0.08 µM); 0.921 in the assay with R406 + Foretinib (first compound 0.253 µM); 0.976 with R406 + Foretinib (first compound 0.8 µM); 0.49 with R406 + Foretinib (first compound 2.53 µM); 0.396 with R406 + Foretinib (first compound 8 µM); 0.416 in the assay with R406 + Lapatinib (first compound 0.08 µM). In addition, the relative viability with R406 + Lapatinib (first compound 0.253 µM) came to 0.477; with R406 + Lapatinib (first compound 0.8 µM), 0.5; in the assay with R406 + Lapatinib (first compound 2.53 µM), 0.449; with R406 + Lapatinib (first compound 8 µM), 0.295; with Daporinad + OSI-027 (first compound 0.0005 µM), 0.532; with Daporinad + OSI-027 (first compound 0.001581 µM), 0.608. Further, the relative viability stood at 0.734 with Daporinad + OSI-027 (first compound 0.005 µM) and 0.601 with Daporinad + OSI-027 (first compound 0.01581 µM).

With SW 1573, the relative viability with R406 + Foretinib (first compound 0.08 µM) came out at 0.908; in the assay with R406 + Foretinib (first compound 0.253 µM) it was 0.915; with R406 + Foretinib (first compound 0.8 µM), 0.887; with R406 + Foretinib (first compound 2.53 µM), 0.932; with R406 + Foretinib (first compound 8 µM) it was 0.665; in the assay with R406 + Lapatinib (first compound 0.08 µM), 1.13. Further, the relative viability was determined as 1.22 in the assay with R406 + Lapatinib (first compound 0.253 µM); 1.14 with R406 + Lapatinib (first compound 0.8 µM); 1.27 with R406 + Lapatinib (first compound 2.53 µM); 0.825 with R406 + Lapatinib (first compound 8 µM); 0.564 with Daporinad + OSI-027 (first compound 0.0005 µM); 0.705 with Daporinad + OSI-027 (first compound 0.001581 µM). The relative viability in the assay with Daporinad + OSI-027 (first compound 0.005 µM) is 0.581; with Daporinad + OSI-027 (first compound 0.01581 µM) it was 0.455.
